Consider three compounds from patent US20040044405A1, “Vascular stent or graft coated or impregnated with protein tyrosine kinase inhibitors and method of using same” (priority 2001, published 2004).

The structures appear in SMILES notation.

The test system of assay [1] is PKC. Particulars: cited from earlier work.
Assay [2] relates to Porcine coronary VSMCs. In words: Porcine coronary VSMC proliferation, BrdU incorporation ELISA after PDGF stimulation. Format: cell-based. Particulars: PDGF 20 ng/mL, STI-571, FIG. 1. The procedure: BrdU was added to the wells for the last 5 hours of the stimulation period.
Assay [3] relates to human coronary artery vascular smooth muscle cells. The assay can be described thus: Migration of human coronary artery vascular smooth muscle cells through porous membrane in response to PDGF. Format: cell-based. As to conditions: PDGF-ββ 20 ng/ml, 24 hrs, normalized to control membranes, FIG. 5.
Procedure: Migration was assayed by counting cells that migrated through a porous membrane (20 μm diameter pores) in 24 hours in response to stimulation with platelet-derived growth factor (PDGF-pp).
The initial seed density was 4000 cells per filter (0.3 cm^2) in test media with 1% BSA and 20 ng/ml PDGF-ββ. The cells were then incubated in a humidified environment at 37° C., 5% CO2 for 24 hrs. The cells on the top side of the filter were then scraped away. The cells on bottom side of the filters were then fixed with ice-cold methanol for 10 min. The filters were rinsed with PBS and then stained with HarrisAE Hematoxylin stain for 5 min. and again rinsed with PBS.
The cells were then counted manually under high-power magnification (400×) in quadruplicate.
Assay [4] shares this test system. In words: DNA synthesis in human coronary artery vascular smooth muscle cells, BrdU assay. Particulars: 10% FBS for 48 hours, FIG. 4. It is filed as cell-based.
For assay [5], the system named is Porcine aortic vascular endothelial cells. The assay can be described thus: Porcine aortic vascular endothelial cell proliferation, BrdU incorporation ELISA after VEGF stimulation. It is filed as cell-based. Particulars: VEGF 20 ng/mL for 24 hours, STI-571, FIG. 2. How it is done:
Porcine aortic vascular endothelial cells were grown to subconfluence in 96-well plates with DME media containing 10% FBS at 37° C. for 3 to 5 days. […] BrdU was added to the wells for the last 5 hours of the stimulation period. The cells were subsequently dried for 24 hours at 60° C., fixed and denatured, and BrdU incorporation determined using the Roche ELISA described in Example 1.

Take `O=C1NC(=O)c2cc(Nc3ccccc3)c(Nc3ccccc3)cc21` [CGP5211]: the “inhibitory activity / specificity towards PKC” value in assay [1] is “some inhibitory activity”.

`O=C1NC(=O)c2cc(Nc3ccc(F)cc3)c(Nc3ccc(F)cc3)cc21` [CGP53353]: in assay [1], the “inhibitory activity / specificity towards PKC” value was “lower specificity towards PKC isozymes”.

Turning to `Cc1ccc(NC(=O)c2ccc(CN3CCN(C)CC3)cc2)cc1Nc1nccc(-c2cccnc2)n1` [STI-571], the “proliferation of VSMCs (BrdU incorporation)” value in assay [2] is reported as “inhibited the proliferation of VSMCs in a dose-dependent fashion”. Besides, the “migration of human coronary vascular smooth muscle cells” value in assay [3] is given as “inhibits the migration of human coronary vascular smooth muscle cells in a dose-dependent fashion”. Moreover, in assay [4], the “DNA synthesis in human coronary artery vascular smooth muscle cells (BrdU incorporation)” value is “inhibits DNA synthesis”. In assay [5], the “proliferation of aortic vascular endothelial cells (BrdU incorporation)” value is on record as “very minimal inhibitory effect”.
